According to ChEMBL document CHEMBL3352247, “Synthesis and antimycobacterial evaluation of 5-alkylamino-N-phenylpyrazine-2-carboxamides” (Bioorg Med Chem, 2015):
Calls of active or inactive are those of the source. No cut-off for these calls is given here.

Assays:
Klebsiella pneumoniae [1] = assay: Antibacterial activity against ESBL-positive Klebsiella pneumoniae J 14368/08 clinical isolate after 24 to 48 hrs by broth microdilution method; type: functional, organism-based
Trichosporon asahii = assay: Antifungal activity against Trichosporon asahii 1188 after 24 to 48 hrs by two-fold dilution method; type: functional, organism-based
Enterococcus sp. = assay: Antibacterial activity against Enterococcus sp. J 14365/08 clinical isolate after 24 to 48 hrs by broth microdilution method; type: functional, organism-based
Escherichia coli = assay: Antibacterial activity against Escherichia coli CCM 4517 after 24 to 48 hrs by broth microdilution method; type: functional, organism-based
Staphylococcus aureus [2] = assay: Antibacterial activity against Staphylococcus aureus CCM 4516/08 after 24 to 48 hrs by broth microdilution method; type: functional, organism-based
Klebsiella pneumoniae [3] = assay: Antibacterial activity against Klebsiella pneumoniae D 11750/08 clinical isolate after 24 to 48 hrs by broth microdilution method; type: functional, organism-based
Candida albicans = assay: Antifungal activity against Candida albicans ATCC 44859 after 24 to 48 hrs by two-fold dilution method; type: functional, organism-based
Lichtheimia corymbifera = assay: Antifungal activity against Absidia corymbifera 272 after 24 to 48 hrs by two-fold dilution method; type: functional, organism-based
Pseudomonas aeruginosa = assay: Antibacterial activity against Pseudomonas aeruginosa CCM 1961 after 24 to 48 hrs by broth microdilution method; type: functional, organism-based
Nakaseomyces glabratus = assay: Antifungal activity against Candida glabrata 20/I after 24 to 48 hrs by two-fold dilution method; type: functional, organism-based
Aspergillus fumigatus = assay: Antifungal activity against Aspergillus fumigatus 231 after 24 to 48 hrs by two-fold dilution method; type: functional, organism-based
[4] = tested on: Trichophyton mentagrophytes; assay: Antifungal activity against Trichophyton mentagrophytes 445 after 72 to 120 hrs by two-fold dilution method; type: functional, organism-based
[5] = tested on: Staphylococcus epidermidis; assay: Antibacterial activity against Staphylococcus epidermidis H 6966/08 clinical isolate after 24 to 48 hrs by broth microdilution method; type: functional, organism-based
Mycobacterium kansasii = assay: Antimycobacterial activity against Mycobacterium kansasii CNCTC My 235/80 in Middlebrook 7H9 broth after 5 days by AlamarBlue assay; type: functional; details: CNCTC My 235/80, 120 h
[6] = Antimycobacterial activity against Mycobacterium avium subsp. avium Chester CNCTC My 80/72 in Middlebrook 7H9 broth after 5 days by AlamarBlue assay; type: functional; details: Chester CNCTC My 80/72, 120 h
[7] = tested on: Mycobacterium tuberculosis; assay: Antimycobacterial activity against Mycobacterium tuberculosis H37Rv CNCTC My 331/88 in Middlebrook 7H9 broth after 5 days by AlamarBlue assay; type: functional; details: H37Rv CNCTC My 331/88, 120 h
Pichia kudriavzevii = assay: Antifungal activity against Candida krusei E28 after 24 to 48 hrs by two-fold dilution method; type: functional, organism-based
Staphylococcus aureus [8] = assay: Antibacterial activity against methicillin-resistant Staphylococcus aureus H 5996/08 clinical isolate after 24 to 48 hrs by broth microdilution method; type: functional, organism-based
Candida tropicalis = assay: Antifungal activity against Candida tropicalis 156 after 24 to 48 hrs by two-fold dilution method; type: functional, organism-based

SMILES | Activity (Klebsiella pneumoniae [1]) | Activity (Trichosporon asahii) | Activity (Enterococcus sp.) | Activity (Escherichia coli) | Activity (Staphylococcus aureus [2]) | Activity (Klebsiella pneumoniae [3]) | Activity (Candida albicans) | Activity (Lichtheimia corymbifera) | Activity (Pseudomonas aeruginosa) | Activity (Nakaseomyces glabratus) | Activity (Aspergillus fumigatus) | Activity [4] | Activity [5] | MIC (Mycobacterium kansasii) | MIC [6] | MIC [7] | Activity (Pichia kudriavzevii) | Activity (Staphylococcus aureus [8]) | Activity (Candida tropicalis)
O=C(Nc1ccccc1Cl)c1cnc(NCCCCO)cn1 | inactive | inactive | inactive | inactive | inactive | inactive | inactive | inactive | inactive | inactive | inactive | inactive | inactive | > 100 µg/mL | > 100 µg/mL | > 100 µg/mL | inactive | inactive | inactive
COCCNc1cnc(C(=O)Nc2ccccc2Cl)cn1 | inactive | inactive | inactive | inactive | inactive | inactive | inactive | inactive | inactive | inactive | inactive | inactive | inactive | > 100 µg/mL | > 100 µg/mL | > 100 µg/mL | inactive | inactive | inactive
O=C(Nc1ccccc1Cl)c1cnc(NCCc2ccccc2)cn1 | inactive | inactive | inactive | inactive | inactive | inactive | inactive | inactive | inactive | inactive | inactive | inactive | inactive | > 100 µg/mL | > 100 µg/mL | > 100 µg/mL | inactive | inactive | inactive
Nc1cnc(C(=O)Nc2ccccc2Cl)cn1 | inactive | inactive | inactive | inactive | inactive | inactive | inactive | inactive | inactive | inactive | inactive | inactive | inactive | > 100 µg/mL | > 100 µg/mL | > 100 µg/mL | inactive | inactive | inactive
O=C(Nc1ccccc1)c1cnc(NCCO)cn1 | inactive | inactive | inactive | inactive | inactive | inactive | inactive | inactive | inactive | inactive | inactive | inactive | inactive | > 100 µg/mL | > 100 µg/mL | > 100 µg/mL | inactive | inactive | inactive
O=C(Nc1ccccc1)c1cnc(NCCCCCO)cn1 | inactive | inactive | inactive | inactive | inactive | inactive | inactive | inactive | inactive | inactive | inactive | inactive | inactive | > 100 µg/mL | > 100 µg/mL | 41.6 µM | inactive | inactive | inactive
O=C(Nc1ccccc1)c1cnc(NCCc2ccccc2)cn1 | inactive | inactive | inactive | inactive | inactive | inactive | inactive | inactive | inactive | inactive | inactive | inactive | inactive | > 100 µg/mL | > 100 µg/mL | 39.3 µM | inactive | inactive | inactive
O=C(Nc1ccccc1)c1cnc(NCCCO)cn1 | inactive | inactive | inactive | inactive | inactive | inactive | inactive | inactive | inactive | inactive | inactive | inactive | inactive | > 100 µg/mL | > 100 µg/mL | > 100 µg/mL | inactive | inactive | inactive
COCCCNc1cnc(C(=O)Nc2ccccc2Cl)cn1 | inactive | inactive | inactive | inactive | inactive | inactive | inactive | inactive | inactive | inactive | inactive | inactive | inactive | > 100 µg/mL | > 100 µg/mL | > 100 µg/mL | inactive | inactive | inactive
O=C(Nc1ccccc1Cl)c1cnc(NCCCO)cn1 | inactive | inactive | inactive | inactive | inactive | inactive | inactive | inactive | inactive | inactive | inactive | inactive | inactive | > 100 µg/mL | > 100 µg/mL | > 100 µg/mL | inactive | inactive | inactive
COCCNc1cnc(C(=O)Nc2ccccc2)cn1 | inactive | inactive | inactive | inactive | inactive | inactive | inactive | inactive | inactive | inactive | inactive | inactive | inactive | > 100 µg/mL | > 100 µg/mL | 184 µM | inactive | inactive | inactive
O=C(Nc1ccccc1)c1cnc(NCCCCO)cn1 | inactive | inactive | inactive | inactive | inactive | inactive | inactive | inactive | inactive | inactive | inactive | inactive | inactive | > 100 µg/mL | > 100 µg/mL | 87.3 µM | inactive | inactive | inactive
O=C(Nc1ccccc1Cl)c1cnc(NCCCCCO)cn1 | inactive | inactive | inactive | inactive | inactive | inactive | inactive | inactive | inactive | inactive | inactive | inactive | inactive | > 100 µg/mL | > 100 µg/mL | > 100 µg/mL | inactive | inactive | inactive
